From the CheMixHub viscosity set
Several values for one entry are separate records, joined by “and”; a condition that tells them apart may be missing. Identical values can stand only once.

Test: xn = mol fraction of the nth substance listed

c1ccc2c(c1)CCCC2 + CCCCCCCCCC
viscosity [mPa·s]
Settings | 293.15 K | 298.15 K | 303.15 K | 308.15 K | 313.15 K | 318.15 K | 323.15 K
100 kPa, x1 = 0.0986 | 0.954 | 0.886 | 0.827 | 0.774 | 0.727 | 0.685 | 0.647
100 kPa, x1 = 0.2025 | 1.008 | 0.936 | 0.871 | 0.814 | 0.763 | 0.718 | 0.678
100 kPa, x1 = 0.2995 | 1.065 | 0.987 | 0.919 | 0.859 | 0.805 | 0.757 | 0.713
100 kPa, x1 = 0.3994 | 1.133 | 1.043 | 0.973 | 0.908 | 0.85 | 0.798 | 0.752
100 kPa, x1 = 0.5005 | 1.221 | 1.127 | 1.045 | 0.973 | 0.909 | 0.852 | 0.802
100 kPa, x1 = 0.5989 | 1.329 | 1.224 | 1.132 | 1.047 | 0.977 | 0.916 | 0.859
100 kPa, x1 = 0.6999 | 1.468 | 1.347 | 1.243 | 1.151 | 1.07 | 0.999 | 0.936
100 kPa, x1 = 0.7987 | 1.644 | 1.495 | 1.382 | 1.276 | 1.182 | 1.101 | 1.028
100 kPa, x1 = 0.9002 | 1.878 | 1.708 | 1.564 | 1.437 | 1.326 | 1.23 | 1.147
101 kPa, x2 = 0.1001 | 1.873 | 1.703 | 1.56 | – | 1.328 | – | –
101 kPa, x2 = 0.2044 | 1.629 | 1.486 | 1.368 | – | 1.175 | – | –
101 kPa, x2 = 0.2961 | 1.471 | 1.349 | 1.245 | – | 1.073 | – | –
101 kPa, x2 = 0.3964 | 1.345 | 1.238 | 1.148 | – | 0.995 | – | –
101 kPa, x2 = 0.4994 | 1.226 | 1.134 | 1.053 | – | 0.917 | – | –
101 kPa, x2 = 0.6017 | 1.143 | 1.06 | 0.986 | – | 0.862 | – | –
101 kPa, x2 = 0.6964 | 1.071 | 0.993 | 0.925 | – | 0.809 | – | –
101 kPa, x2 = 0.7971 | 1.015 | 0.942 | 0.878 | – | 0.77 | – | –
101 kPa, x2 = 0.8894 | 0.968 | 0.9 | 0.838 | – | 0.737 | – | –

CCCCOCCO + O
Settings | viscosity
293.15 K, 101 kPa, x1 = 0.00631 | 1.166 mPa·s
293.15 K, 101 kPa, x1 = 0.0131 | 1.391 mPa·s
293.15 K, 101 kPa, x1 = 0.01666 | 1.507 mPa·s
293.15 K, 101 kPa, x1 = 0.03452 | 2.102 mPa·s
294.15 K, 101 kPa, x1 = 0.00631 | 1.136 mPa·s
294.15 K, 101 kPa, x1 = 0.0131 | 1.352 mPa·s
295.15 K, 101 kPa, x1 = 0.00631 | 1.106 mPa·s
295.15 K, 101 kPa, x1 = 0.0131 | 1.315 mPa·s
295.15 K, 101 kPa, x1 = 0.01666 | 1.421 mPa·s
295.15 K, 101 kPa, x1 = 0.03452 | 1.979 mPa·s
296.15 K, 101 kPa, x1 = 0.00631 | 1.079 mPa·s
296.15 K, 101 kPa, x1 = 0.0131 | 1.279 mPa·s
297.15 K, 101 kPa, x1 = 0.00631 | 1.052 mPa·s
297.15 K, 101 kPa, x1 = 0.0131 | 1.245 mPa·s
297.15 K, 101 kPa, x1 = 0.01666 | 1.342 mPa·s
297.15 K, 101 kPa, x1 = 0.03452 | 1.868 mPa·s
298.15 K, 101 kPa, x1 = 0.00631 | 1.026 mPa·s
298.15 K, 101 kPa, x1 = 0.0131 | 1.212 mPa·s
299.15 K, 101 kPa, x1 = 0.00631 | 1.001 mPa·s
299.15 K, 101 kPa, x1 = 0.0131 | 1.18 mPa·s
299.15 K, 101 kPa, x1 = 0.01666 | 1.271 mPa·s
299.15 K, 101 kPa, x1 = 0.03452 | 1.766 mPa·s
300.15 K, 101 kPa, x1 = 0.00631 | 0.9782 mPa·s
300.15 K, 101 kPa, x1 = 0.0131 | 1.15 mPa·s
301.15 K, 101 kPa, x1 = 0.00631 | 0.9547 mPa·s
301.15 K, 101 kPa, x1 = 0.0131 | 1.121 mPa·s
301.15 K, 101 kPa, x1 = 0.01666 | 1.205 mPa·s
301.15 K, 101 kPa, x1 = 0.03452 | 1.675 mPa·s
302.15 K, 101 kPa, x1 = 0.00631 | 0.9328 mPa·s
302.15 K, 101 kPa, x1 = 0.0131 | 1.092 mPa·s
303.15 K, 101 kPa, x1 = 0.00631 | 0.9113 mPa·s
303.15 K, 101 kPa, x1 = 0.0131 | 1.066 mPa·s
303.15 K, 101 kPa, x1 = 0.01666 | 1.144 mPa·s
303.15 K, 101 kPa, x1 = 0.03452 | 1.592 mPa·s
304.15 K, 101 kPa, x1 = 0.00631 | 0.891 mPa·s
304.15 K, 101 kPa, x1 = 0.0131 | 1.04 mPa·s
305.15 K, 101 kPa, x1 = 0.00631 | 0.8711 mPa·s
305.15 K, 101 kPa, x1 = 0.0131 | 1.015 mPa·s
305.15 K, 101 kPa, x1 = 0.01666 | 1.089 mPa·s
305.15 K, 101 kPa, x1 = 0.03452 | 1.515 mPa·s
306.15 K, 101 kPa, x1 = 0.00631 | 0.8521 mPa·s
306.15 K, 101 kPa, x1 = 0.0131 | 0.9916 mPa·s
307.15 K, 101 kPa, x1 = 0.00631 | 0.8342 mPa·s
307.15 K, 101 kPa, x1 = 0.0131 | 0.9686 mPa·s
307.15 K, 101 kPa, x1 = 0.01666 | 1.038 mPa·s
307.15 K, 101 kPa, x1 = 0.03452 | 1.445 mPa·s
308.15 K, 101 kPa, x1 = 0.00631 | 0.8158 mPa·s
308.15 K, 101 kPa, x1 = 0.0131 | 0.9465 mPa·s
308.15 K, 101 kPa, x1 = 0.037 | 1.465 mPa·s and 1.465 mPa·s
308.15 K, 101.33 kPa, x2 = 0.3047 | 2.388 mPa·s
308.15 K, 101.33 kPa, x2 = 0.4017 | 2.477 mPa·s
308.15 K, 101.33 kPa, x2 = 0.4974 | 2.624 mPa·s
308.15 K, 101.33 kPa, x2 = 0.5973 | 2.835 mPa·s
308.15 K, 101.33 kPa, x2 = 0.697 | 2.955 mPa·s
308.15 K, 101.33 kPa, x2 = 0.8047 | 2.873 mPa·s
308.15 K, 101.33 kPa, x2 = 0.8972 | 2.245 mPa·s
308.15 K, 101.33 kPa, x2 = 0.9497 | 1.576 mPa·s
309.15 K, 101 kPa, x1 = 0.00631 | 0.799 mPa·s
309.15 K, 101 kPa, x1 = 0.0131 | 0.9251 mPa·s
309.15 K, 101 kPa, x1 = 0.01666 | 0.9913 mPa·s
309.15 K, 101 kPa, x1 = 0.03452 | 1.381 mPa·s
310.15 K, 101 kPa, x1 = 0.00631 | 0.7823 mPa·s
310.15 K, 101 kPa, x1 = 0.0131 | 0.9045 mPa·s
311.15 K, 101 kPa, x1 = 0.00631 | 0.7663 mPa·s
311.15 K, 101 kPa, x1 = 0.0131 | 0.8847 mPa·s
311.15 K, 101 kPa, x1 = 0.01666 | 0.9476 mPa·s
311.15 K, 101 kPa, x1 = 0.03452 | 1.322 mPa·s
312.15 K, 101 kPa, x1 = 0.00631 | 0.7507 mPa·s
312.15 K, 101 kPa, x1 = 0.0131 | 0.8657 mPa·s
313.15 K, 101 kPa, x1 = 0.00631 | 0.7357 mPa·s
313.15 K, 101 kPa, x1 = 0.0131 | 0.8474 mPa·s
313.15 K, 101 kPa, x1 = 0.01666 | 0.907 mPa·s
313.15 K, 101 kPa, x1 = 0.03452 | 1.268 mPa·s
313.15 K, 101 kPa, x1 = 0.6 | 2.465 mPa·s
314.15 K, 101 kPa, x1 = 0.00631 | 0.7211 mPa·s
314.15 K, 101 kPa, x1 = 0.0131 | 0.8294 mPa·s
315.15 K, 101 kPa, x1 = 0.00631 | 0.7073 mPa·s
315.15 K, 101 kPa, x1 = 0.0131 | 0.8121 mPa·s
315.15 K, 101 kPa, x1 = 0.01666 | 0.8696 mPa·s
315.15 K, 101 kPa, x1 = 0.03452 | 1.218 mPa·s
316.15 K, 101 kPa, x1 = 0.00631 | 0.6935 mPa·s
316.15 K, 101 kPa, x1 = 0.0131 | 0.7957 mPa·s
317.15 K, 101 kPa, x1 = 0.00631 | 0.6799 mPa·s
317.15 K, 101 kPa, x1 = 0.0131 | 0.7795 mPa·s
317.15 K, 101 kPa, x1 = 0.01666 | 0.8346 mPa·s
317.15 K, 101 kPa, x1 = 0.03452 | 1.173 mPa·s
318.15 K, 101 kPa, x1 = 0.00631 | 0.6676 mPa·s
318.15 K, 101 kPa, x1 = 0.0131 | 0.764 mPa·s
318.15 K, 101 kPa, x1 = 0.03452 | 1.151 mPa·s
319.15 K, 101 kPa, x1 = 0.00631 | 0.6552 mPa·s
319.15 K, 101 kPa, x1 = 0.0131 | 0.7487 mPa·s
319.15 K, 101 kPa, x1 = 0.01666 | 0.8021 mPa·s
319.15 K, 101 kPa, x1 = 0.03452 | 1.131 mPa·s
320.15 K, 101 kPa, x1 = 0.00631 | 0.6431 mPa·s
320.15 K, 101 kPa, x1 = 0.0131 | 0.7347 mPa·s
320.15 K, 101 kPa, x1 = 0.03452 | 1.113 mPa·s
320.65 K, 101 kPa, x1 = 0.03452 | 1.104 mPa·s
321.15 K, 101 kPa, x1 = 0.00631 | 0.6313 mPa·s
321.15 K, 101 kPa, x1 = 0.0131 | 0.7202 mPa·s
321.15 K, 101 kPa, x1 = 0.01666 | 0.7716 mPa·s
321.15 K, 101 kPa, x1 = 0.03452 | 1.096 mPa·s
321.65 K, 101 kPa, x1 = 0.03452 | 1.088 mPa·s
322.15 K, 101 kPa, x1 = 0.00631 | 0.6205 mPa·s
322.15 K, 101 kPa, x1 = 0.0131 | 0.7065 mPa·s
323.15 K, 101 kPa, x1 = 0.00631 | 0.6094 mPa·s
323.15 K, 101 kPa, x1 = 0.0131 | 0.6934 mPa·s
323.15 K, 101 kPa, x1 = 0.01666 | 0.743 mPa·s
